Laboratory results as given in paper PMC5418574, “Facile access to potent antiviral quinazoline heterocycles with fluorescence properties via merging metal-free domino reactions” (Nature Communications, 2017).
Values joined by “and” are separate entries in the source; they are usually repeats but may differ in a detail not shown here. Identical values can stand only once. Like-named read-outs stand apart in the source and are kept apart here.

Columns and labels:
[1] = tested on: HCMV AD169-GFP; assay: HCMV GFP-based replication assay (automated GFP fluorometry); type: cell-based, human cytomegalovirus
Procedure: The measurement of antiviral activity was based on automated fluorometry using a green fluorescent protein (GFP)-expressing, recombinant HCMV (excitation 485 nm, emission 535 nm; see Supplementary Note 2, Supplementary Data 1 and Supplementary Fig. 4 for dose–response curves).
HCMV GFP‐based replication assay and cell proliferation assay. The replication of human cytomegalovirus (HCMV) was determined by an established HCMV GFP-based replication assay as carried out over a duration of approx. seven days (multi-round infection) using cultures of primary human foreskin fibroblasts (HFFs). HFFs were cultivated in 12-well plates for the infection with a GFP-expressing recombinant human cytomegalovirus (HCMV AD169-GFP) and a signal quantitation using automated GFP fluorometry as described before.2-4 All data represent mean values of determinations in quadruplicate (HCMV infections performed in duplicate, GFP measurements of total cell lysates performed in duplicate). Processing and evaluation of data was performed by the use of Excel (means and standard deviations, see Supplementary Figure 4 and Supplementary Data 1). […]

[2] = trypan blue exclusion cytotoxicity assay; type: cell-based; details: human, primary HFFs (human foreskin fibroblasts), 0.2-100 μM for 3 days, n=6 (artesunic acid n=3)
Procedure: (§1) In addition, EC50 values were confirmed using non-GFP-expressing HCMV (strain AD169) by a classical plaque formation assay on HFFs (n=4), providing data consistent with the GFP-based data shown in Table 1, that is, compound 7h, 7.3±0.7 μM; compound 8, 0.3±0.0 μM; compound 9, 0.3±0.1 μM. Moreover, antiviral activity was clearly separated from putative cytotoxic effects because of the results obtained with a standard trypan blue exclusion assay. […] Consistent with these findings are results from a MTS-based cell proliferation assay, showing moderate or no antiproliferative effects on HFFs for all analysed compounds in concentrations up to 30 μM (see Supplementary Fig. 5 and Supplementary Methods). Thus, the new quinazolines and hybrid compounds can be regarded as selective, which is one of the most important aspects in drug design.
Cytotoxicity and Cell Proliferation Assays
Assays measuring distinct parameters of cytotoxicity and/or cell proliferation were performed as described earlier.7, 8 In brief, a trypan blue exclusion assay was performed with cultured cells seeded in 24-well plates and incubated with increasing concentrations of antiviral compounds (range of 0.2 μM to […]
before the percentage of viable cells was determined by microscopic counting (determination at least in triplicates). The cell proliferation assay (CellTiter 96 AQueous One Solution cell proliferation assay; Promega) was performed in a 96-well plate format after a 3-day treatment with compounds under standard conditions of measurement as described by the manufacturer. […]

[3] = tested on: primary HFFs; assay: confocal laser-scanning microscopy of cellular uptake of fluorescent compounds; type: cell-based, human; details: 1–10 μM, uninfected or HCMV-infected, 20 h incubation
Procedure: Figure 7 Microscopy-based visualization of cellular uptake of fluorescent quinazoline compounds. (a) Artesunic acid–quinazoline hybrids 8 and 9. (b–d) Compounds 7h, 7g and 9 were analysed for properties of fluorescence imaging using confocal laser-scanning microscopy. HFFs were cultivated in six-well plates on cover slips and were either directly incubated with compounds by addition to the culture media for 20 h (c) or were added after HCMV infection (b,d; compound addition at 50 h post infection, fixation and analysis of cells 20 h later; scale bar, 10 μm). The chosen concentrations were 10 μM for compounds 7h, 7g and 9, or 1 μM for compound 9 in panels 4, 9 (b), panels 5, 10 (c) and panels 6–10 (d), referring to the compounds' EC50 values of anti-HCMV activity (see Table 1). The depicted images are representative for three independent experiments. Lack of mycoplasm contamination was verified by routine 4,6-diamidino-2-phenylindole staining. General procedures of cell fixation, indirect immunofluorescence staining of proteins (d) and microscopic analysis have been described elsewhere.
When analysing primary HFFs, the fluorescent compounds 7g, 7h and 9 could nicely be depicted both in extracellular (transparent arrows) and intracellular localizations (filled arrows; Fig. 7b,c). […] A nonfluorescent artemisinin-derived control compound (Fig. 7c, panels 2 and 7; see also Supplementary Fig. 6), the DMSO panels (solvent controls) as well as the inspection of different excitation wavelengths of the confocal laser-scanning microscopy confirmed the specificity of signals and a lack of unwarranted cross-fluorescence. […] An indirect immunofluorescence counterstaining of viral and cellular proteins[36][37] led to the detection of nuclear markers, that is, the viral protein kinase pUL97 and cellular lamins type A/C (Fig. 7d, panels 4, 9, 14 or 5, 10, 15, respectively), in the context of extracellular and intracellular fluorescence signals of compounds 7h and 9 (Fig. 7d, panels 1–5 or 6–15, respectively). […]

[4] = tested on: non-GFP-expressing HCMV (strain AD169); assay: classical plaque formation assay on HFFs; type: cell-based, human cytomegalovirus; details: Human betaherpesvirus 5, AD169, read-out: EC50, plaque formation assay
Procedure: as §1

[5] = Human betaherpesvirus 5, AD169, read-out: HCMV EC50

Row | Structure (SMILES) | GFP signal, % of Inf./DMSO, MW (mean) ([1]; 0.01 µM) | GFP signal, % of Inf./DMSO, single determination (raw data) ([1]; 0.01 µM) | GFP signal, % of Inf./DMSO, MW (mean) ([1]; 0.04 µM) | GFP signal, % of Inf./DMSO, single determination (raw data) ([1]; 0.04 µM) | GFP signal, % of Inf./DMSO, MW (mean) ([1]; 0.12 µM) | GFP signal, % of Inf./DMSO, single determination (raw data) ([1]; 0.12 µM) | GFP signal, % of Inf./DMSO, MW (mean) ([1]; 0.37 µM) | GFP signal, % of Inf./DMSO, single determination (raw data) ([1]; 0.37 µM) | GFP signal, % of Inf./DMSO, MW (mean) ([1]; 1.1 µM) | GFP signal, % of Inf./DMSO, single determination (raw data) ([1]; 1.1 µM) | GFP signal, % of Inf./DMSO, MW (mean) ([1]; 3.3 µM) | GFP signal, % of Inf./DMSO, single determination (raw data) ([1]; 3.3 µM) | EC50 [1, 5] | CC50 at 3 days [2] | GFP signal, % of Inf./DMSO, MW (mean) ([1]; 10 µM) | cellular uptake (intracellular fluorescence) [3] | GFP signal, % of Inf./DMSO, single determination (raw data) ([1]; 10 µM) | EC50 [4] | EC50 ([1]; Human betaherpesvirus 5, AD169, read-out: EC50 (sheet Curves))
1 | Cc1ccc(-c2cc(-c3ccc(C)cc3)c3c(N)ncnc3c2C#N)cc1 [7b] | 89% | 90% and 87% and 92% | 89% | 91% and 86% and 89% and 90% | 87% | 98% and 91% and 76% and 82% | 89% | 81% and 82% and 95% and 98% | 62% | 65% and 63% and 64% and 56% | 53% | 55% and 51% and 56% | 9.5 ± 4.8 µM | > 100 µM | – | – | – | – | –
2 | N#Cc1c(-c2ccc(F)cc2)cc(-c2ccc(F)cc2)c2c(N)ncnc12 [7g] | – | – | – | – | 93% | 82% and 87% and 122% and 80% | 94% | 94% and 96% and 90% | 79% | 73% and 94% and 71% and 79% | 62% | 61% and 63% and 60% and 66% | 4.9 ± 0.2 µM | > 100 µM | 10% | efficient cellular uptake | – | – | –
3 | N#Cc1c(-c2ccc(C(F)(F)F)cc2)cc(-c2ccc(C(F)(F)F)cc2)c2c(N)ncnc12 [7h] | – | – | – | – | 72% | 60% and 89% and 90% and 49% | 71% | 80% and 75% and 61% and 68% | 75% | 61% and 62% and 87% and 89% | 58% | 58% and 67% and 50% and 57% | 4.6 ± 0.9 µM | > 100 µM | 22% | efficient cellular uptake | 16% and 27% and 28% | 7.3 ± 0.7 µM | –
4 | COc1ccc(-c2cc(-c3ccc(OC)cc3)c3c(N)ncnc3c2C#N)cc1 [7i] | 82% | 85% and 84% and 78% | 91% | 100% and 98% and 84% | 83% | 89% and 80% and 75% | 54% | 53% and 57% | 38% | 39% and 42% and 35% | 31% | 28% and 26% and 34% and 35% | 0.6 ± 0.1 µM | > 100 µM | – | – | – | – | 0.56 µM
